According to US8349845B2, “Thiazolopyrimidines for use in therapy” (Sosei Group Corporation, priority 2005, dated 2013):

Experiments:
[1] = system: rat Brennan model of surgical pain; assay: PWT in the rat Brennan model of surgical pain; format: in vivo
Description: The surgical pain model was prepared as described by Brennan et al (1996). Briefly, the rat was anaesthetised with 5% isofluorane in oxygen (2 L/min) for induction followed by an intravenous injection of sodium pentobarbitone (50 mg/kg) prior to surgery. The surgery was carried out under aseptic routines. The left hind paw was sterilized with 75% ethanol solution. A 1.5 cm longitudinal incision was made with a scalpel from about 0.5 cm of the heel edge towards the toes. The plantaris muscle and fascia were elevated and incised longitudinally but the structure of these tissues kept intact. After complete hemostasis with pressure, the skin was closed with stitches of 5-0 suture silk. The animal was routinely given an intraperitoneal injection of Amoxipen 15 mg/kg for prevention of infection after surgery. After surgery, the animals were placed in a temperature-controlled recovering chamber until full return of conscience and voluntary movement, before being returned to their home cages.

[2] = system: ectopic discharge in CCI rats; assay: Acute administration, spontaneous ectopic discharge in sural nerve of CCI rats; format: in vivo, rat
Description: The preparation of CCI model rats and the assessment of neuropathic pain state were as described for Example 1. The electrophysiological experiments were performed on CCI rats with neuropathic pain states confirmed by von Frey hair testing as previously described. Compound 1 suspension was made in a vehicle containing 1% DMSO, 66% PEG200 and 33% saline to 5 mg/ml. Rats with neuropathic pain were anaesthetized with thiobutabarbital sodium (inactin, 120 mg/kg, i.p. for induction and thereafter 60 mg/kg, i.p. for maintenance, if necessary). The arterial blood pressure and heart rate were routinely monitored and rectal temperature was continuously monitored and maintained at a physiological range using a thermo-blanket system. The skin of the left hind limb was incised and stitched onto a stainless steel “O” ring to form an oil pool. The sural nerve was carefully exposed and repeatedly teased into small bundles containing only one or a few fibres and examined for spontaneous activity. In acute experiments, when an active fibre was found, a period of at least 20 min control recording was obtained. Subsequently, the effects of the vehicle and Compound 1 (5 mg/kg, i.v.) were examined. Activity was monitored for at least 40 minutes following administration of the drug. The frequency of the spontaneous activity was monitored online and analysed offline after experiment. For i.v. injection, Compound 1 suspension (5 mg/ml) was prepared using a vehicle made of 1% DMSO, 66% polyethelene glycol (PEG 200) and 33% normal saline. The suspension was then sonicated for 30 min before administration.

[3] = system: ectopic discharge in CCI rats; assay: Chronic dosing, generation of ectopic discharge and PWT in CCI rats; format: in vivo, rat
Description: After confirmation of neuropathic pain state on day 16 post-surgery, the animals (4 for vehicle group and 4 for drug treatment group) were given either vehicle (5% DMSO in saline) or Compound 130 mg/kg p.o., twice a day for 8 days. At the end of the dosing protocol, the PWT was reassessed before the electrophysiological experiment. The sural nerve was repeatedly teased into fine bundles for examination. For a fibre with spontaneous activity, the recording lasted for at least 1 min; for a fiber without obvious spontaneous activity, the recording lasted for at least 30 sec. In each sural nerve, as many fibres as possible were teased and recorded (more than 150 bundles on average in one animal).

[4] = system: lipopolysaccharide-induced polyclonal antibody responses; settings: preclinical studies; cited from earlier work
CCI rats [5] = assay: Tolerance liability in CCI model (PWT over 7 days of dosing); format: in vivo, rat
Description: The preparation of CCI model rats and the assessment of neuropathic pain state using von Frey hairs were as the same as described for Example 1. The PWT was assessed in the morning for 3 consecutive days prior to the surgery and on days 6, 14, 15 and 16 after surgery. Starting from day 16, the animals were either dosed with vehicle (5% DMSO in saline, 1 ml/kg) or Compound 130 mg/kg p.o., twice a day for 7 days. From day 16 onward, PWT was assessed thereafter every morning and 4 hours after dosing, up to day 23 post surgery.

CCI rats [6] = assay: Single oral dose study, mechanical allodynia (von Frey PWT) in rat chronic constriction injury (CCI) model; format: in vivo; settings: 20 mg/kg p.o.; for paw withdrawal threshold (PWT): mean±S.E.M.
Description: The rat chronic constriction injury (CCI) model was prepared following the standard protocols (Bennett and Xie, 1988). Briefly, male Sprague-Dawley rats, weighing 150-175 gram at arrival, were anaesthetized with a 5% isofluorane/95% oxygen gas mixture followed by an i.p. injection of sodium pentobarbitone (50 mg/kg). The lateral side of the left hind limb was shaved and sterilized with 75% ethanol. An incision of about 1 cm was made to expose the sciatic nerve. Four loose ligations with 4-0 suture silk were made on the sciatic nerve. The wound was closed in layers with silk suture and the animals were placed in a recovering chamber with the temperature controlled at 30° C. The animals were then returned to their home cage after complete return of consciousness and the return of free movement. A dose of amoxicillin (0.1 ml, 15 mg) was routinely injected intraperitoneally after surgery to prevent infection. In CCI rats, the assessment of paw withdrawal threshold (PWT) in response to the mechanical stimulation started 14 days after surgery. […] The PWT was measured using a series of graduated von Frey hairs. The animals were placed in individual perspex boxes on a raised metal mesh for at least 30 min before the test. Starting from a filament of lower force (1 g), each filament was applied perpendicularly to the centre of the paw pad until it slightly bends for 6 seconds. If the animal withdrew or lifted the paw upon stimulation, then a hair with force immediately lower than that tested would be used. If no response was observed, then a hair with force immediately higher would be used. The lowest amount of force required to induce reliable responses (positive in 3 out of 5 trials) was recorded as the value of PWT. A suspension of Compound 1 was made with 5% DMSO in saline (10 mg/ml). The suspension was sonicated for at least 20 min before application. All data in this study are presented as mean±S.E.M. and are analysed with the student-t-test or one way ANOVA as appropriate. The significance level was set at P<0.05.

CCI rats [7] = assay: Dose-response study, mechanical allodynia (PWT) in CCI model; format: in vivo, rat; settings: CCI rats, 1, 3, 10, 30 mg/kg orally, 30-360 min after dosing
Description: The methods for preparing CCI animals and assessing mechanical allodynia using von Frey hairs were as described in Example 1. Four doses of Compound 1 (1, 3, 10, 30 mg/kg) were given orally and the PWT was reassessed at 30, 60, 120, 180, 240 and 360 min after dosing.

[8] = system: mice with autoimmune neuropathy; settings: preclinical studies; cited from earlier work
[9] = system: rats with diabetic neuropathy; assay: PWT in rats with streptozotocin-induced diabetic neuropathy; format: in vivo, rat
Description: Under isofluorane anaesthesia, adult male Sprague-Dawley rats (150-200 g) were given an intraperitoneal injection of streptozotocin (75 mg/kg, Calbiochem). After injection, particular care was taken to ensure that water and food were available at all time and the beddings were changed frequently. A week after streptozocin injection, the blood glucose content was examined using Advantage II with Accutech strips (Roche). Only rats with blood glucose higher than 12 mM/L (216 mg/DL) were chosen for behavioural study. The assessment of neuropathic pain state using von Frey hairs was the same as described for Example 1. Rats with lowered PWT (<4 g) were used for either vehicle (1 ml/kg, p.o. or Compound 1 (1, 3, 10, and 30 mg/kg p.o.) dosing. The PWT was reassessed at 1, 2, 3, 4 and 6 hours after oral dosing.

[10] = doses higher than 3 mg/kg p.o., dose-dependent
[11] = CCI rats after chronic treatment

With `O=C1N=C2SCCN2C(=O)C1Cc1ccc(Cl)cc1` (stereo not shown) [Compound 1, 6-(p-chlorobenzyl)-5H-2,3,6,7-tetrahydro-5,7-dioxothiazolo[3,2-a]pyrimidine] as the compound, how does the “time after dosing at which the effect on PWT was first observed” value [1] read?
The value was 4 h.

What about the “time after dosing up to which the effect on PWT lasted” value [1] of the same compound?
Its value is “up to 8 hours”.

And the “changes in PWT” value ([1]; 3 mg/kg, n=7, P>0.05)?
Its value is “Neither vehicle (n=8) or Compound 1 at 3 mg/kg (n=7) produced significant changes in PWT”.

And the “analgesic effect after 6 hours” value ([1]; 10 mg/kg)?
The value was “had gone”.

And the PWT ([1]; 10 mg/kg, at 4 hours, from control level 1.50±0.36 g, P<0.05)?
The PWT was 2.60 ± 0.48 g.

And the PWT ([1]; 30 mg/kg, 6 hours post-dose, P<0.001 vs vehicle)?
The PWT was 5.28 ± 0.66 g.

What about the PWT ([1]; 30 mg/kg, 8 hours post-dose, P<0.001 vs vehicle) of the same compound?
Its PWT is 4.16 ± 0.79 g.

What about the PWT ([1]; 30 mg/kg, at 4 hours, from control level 1.82±3.8 g, P<0.001) of the same compound?
The PWT was 3.80 ± 0.44 g.

And the “changes in PWT” value [1, 10]?
Its value is “significantly increased the PWT”.

And the “ectopic discharge after injection” value ([2]; first CCI preparation, 5 mg/kg i.v., reduced from 682 imps/min)?
Its value is 426 imps/min.

What about the “firing rate of ectopic discharge, % of control” value ([2]; four fibres, after administration, P<0.01) of the same compound?
The value was 57.1±9.0 % of control.

What about the “average firing rate of ectopic discharge after administration” value ([2]; four fibres, before drug 489.7±125.8 imps/min, P<0.01) of the same compound?
Its value is 307.6±113.4 imps/min.

What about the “ectopic discharge after injection” value ([2]; second CCI preparation, iv injection, reduced from 298 imps/min) of the same compound?
Its value is 104 imps/min.

And the “PWT compared with vehicle-treated” value ([3]; 4 CCI rats, after 8 days of treatment p.o. twice a day)?
Its value is “significantly higher”.

And the “averaged frequency of spontaneous activity” value [3, 11]?
Its value is 888.9 ± 148.5 min⁻¹.

And the “comparison of averaged frequency of spontaneous activity with vehicle group” value [3, 11]?
Its value is “failed to reveal significant difference”.

What about the “fibres with spontaneous activity” value ([3]; among 633 fibres recorded from 4 treated rats (vehicle 197 of 602)) of the same compound?
The value was 48 fibres.

And the “proportions of fibres with spontaneous activity” value ([3]; chronic treatment of CCI rats, vs vehicle, P<0.001 χ2 test)?
The value was “significantly reduced”.

And the “lipopolysaccharide-induced polyclonal antibody responses” value [4]?
The value was “inhibited”.

What about the “baseline PWT compared with vehicle group” value (CCI rats [5]; after the first day's treatment and throughout the 7 day dosing period, p.o. twice a day) of the same compound?
Its value is “higher than that observed in the vehicle group”.

And the “time for which CCI-induced mechanical allodynia is alleviated post-dose” value (CCI rats [5]; on repeat dosing)?
Its value is 12 h.

What about the “loss of efficacy in reversing lowered PWT” value (CCI rats [5]; over 7 days of treatment) of the same compound?
The value was “no significant loss of efficacy”.

What about the “duration of the effect on PWT” value (CCI rats [6]) of the same compound?
Its value is > 6 h.

And the “paw withdrawal threshold (PWT)” value (CCI rats [6]; 2 hours after dosing, P<0.05 vs vehicle)?
Its value is 2.6 ± 0.7 g.

What about the “paw withdrawal threshold (PWT)” value (CCI rats [6]; 3 hours after dosing, P<0.01 vs vehicle) of the same compound?
The value was 3.0 ± 0.7 g.

What about the “paw withdrawal threshold (PWT)” value (CCI rats [6]; 4 hours after dosing, P<0.001 vs vehicle) of the same compound?
The value was 6.3 ± 0.8 g.

And the “paw withdrawal threshold (PWT)” value (CCI rats [6]; 6 hours after dosing, P<0.001 vs pre-dosing control)?
The value was 4.0 ± 0.5 g.

And the “effect on PWT” value (CCI rats [7])?
The value was “dose-dependently increased the PWT”.

And the kidney function [8]?
Its kidney function is “restored kidney function”.

What about the “changes in PWT” value ([9]; 1 mg/kg p.o.) of the same compound?
Its value is “Neither vehicle or Compound 1 at 1 mg/kg produced significant changes in PWT”.

What about the “changes in PWT” value [9, 10] of the same compound?
The value was “significantly increased the PWT”.
